# How the values were obtained:
# [1] = Partition coefficient, log P of the compound; assay type: physicochemical; details: octanol/water
# [2] = molecular target: T1, Enoyl-[acyl-carrier-protein] reductase [NADH] (Mycobacterium tuberculosis, UniProt P9WGR1)
# T1 sequence (P9WGR1 whole entry): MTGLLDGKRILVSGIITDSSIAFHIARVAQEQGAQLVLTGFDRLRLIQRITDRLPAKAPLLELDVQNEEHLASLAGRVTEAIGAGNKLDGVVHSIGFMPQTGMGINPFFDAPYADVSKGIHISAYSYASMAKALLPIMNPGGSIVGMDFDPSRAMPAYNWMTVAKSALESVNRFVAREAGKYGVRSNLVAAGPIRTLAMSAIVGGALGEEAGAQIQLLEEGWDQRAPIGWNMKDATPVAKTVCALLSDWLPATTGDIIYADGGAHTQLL
# Description: Inhibition of Mycobacterium tuberculosis InhA
SMILES,logP ([1]; read-out: logP),other results
CCCCCCc1ccc(Oc2ccc(N)cc2)c(O)c1,4.42,
CCCCCCc1ccc(Oc2cccc([N+](=O)[O-])c2)c(O)c1,4.49,
CCCCCCc1ccc(Oc2ccncc2)c(O)c1,4.33,
CCCCCCc1ccc(Oc2ncccn2)c(O)c1,4.13,
CCCCCCc1ccc(Oc2ccc(NC(=O)c3ccno3)cc2)c(O)c1,4.86,
CCCCCCc1ccc(Oc2ccc(CN3CCN(C)CC3)cc2)c(O)c1,5.33,
CCCCCCc1ccc(Oc2ccc([N+](=O)[O-])cc2)c(O)c1,,logP [1]: 4.489
CCCCCCc1ccc(Oc2ccccc2NC(=O)c2ccno2)c(O)c1,4.86,
CCCCCCc1ccc(Oc2cccnc2)c(O)c1,4.33,
CCCCCCc1ccc(Oc2ccc(NC(=O)C(=O)O)cc2)c(O)c1,5.59,
CCCCCCc1ccc(Oc2cccc(N)c2)c(O)c1,4.42,
CCCCCCc1ccc(Oc2cnccn2)c(O)c1,4.12,
CCCCCCc1ccc(Oc2ccccn2)c(O)c1,5.03,
CCCCCCc1ccc(Oc2ccccc2NC(C)=O)c(O)c1,5,
CCCCCCc1ccc(Oc2cccc(NC(C)=O)c2)c(O)c1,5,IC50 [2]: 579 nM
CCCCCCc1ccc(Oc2ccc(NC(C)=O)cc2)c(O)c1,5,
CCCCCCc1ccc(Oc2cccc(NC(=O)c3ccno3)c2)c(O)c1,4.86,
CCCCCCc1ccc(Oc2ccccc2N)c(O)c1,4.42,
CCCCCCc1ccc(Oc2ccccc2CN2CCN(C)CC2)c(O)c1,5.33,
CCCCCCc1ccc(Oc2ccccc2[N+](=O)[O-])c(O)c1,,logP [1]: 4.489
CCCCCCc1ccc(Oc2ccccc2)c(O)c1,5.64,
